Measurements as given in patent US20100004171A1, “Therapeutic Methods for Neuropathic Pain” (priority 2006, published 2010).
Where no end group is shown, it is not given here.

What was measured:
NMDA receptors = details: cited from earlier work; for effect on hyperalgesia and allodynia: given systemically and locally; for doses at which the effects are seen: reported by some researchers
[1] = system: tactile allodynia in allodynic rats; assay: Tactile allodynia test (von Frey filaments, paw withdrawal threshold) in CCI (Bennett model) rats; assay type: in vivo, rat; details: for effect on paw-withdrawal threshold: intrathecal 100 nmol in 10 μl in allodynic rats, day 7 after injury, up to 8 hr
Description: Bennett Model: In this model, approximately 0.8 cm of the left sciatic nerve was exposed and freed with sharpened scissors at middle-thigh level as described by Bennett and Xie.^[76] Four ligatures were placed loosely around the sciatic nerve with 4-0 chromic catgut, with 1 mm space between the ties, which compresses the nerve but epineural blood circulation is preserved. The tissue and skin were closed in layers. […] Most allodynia was seen during the time period of 7-14 days after the surgery.
Intrathecal catheter installation: A PE10 catheter, stretched to a somewhat thinner diameter in the distal part, was introduced into the spinal canal (subarachnoid space) via a 21 G (gauge) cannula between the L5 and L6 lamina and advanced to the lumbar enlargement in rats. The proximal part was tunneled under the skin and led out on the upper dorsal region. The location of the catheter was verified by the injection of 6 μl (50 mg/ml) xylocalne, such that a transient, flaccid paralysis of the legs was produced, and by X-ray after administration of 10 μl iodine contrast medium (Astra, Sweden). The catheter could be kept for up to two weeks in animals.^[79]
(§1) The maximum volume injected at any one time was 10 μl.^[79]
Tactile allodynia test: In a transparent glass chamber (20×20 cm) with a mesh net floor, each animal was subjected to the tactile allodynia test. A positive response is when an innocuous tactile stimulus induces a brief paw withdrawal away from the stimulation, similar to a paw withdrawal due to heat. A set of von Frey filaments from 0.01 to 28 g (Stoelting Co., Wood Dale, Ill.) were applied to the mid-paw of the allodynic rats at 1 gram, and then progressing up or down. The filament was pressed against the plantar surface for 1 to 2 seconds until it bent. Subsequent applications were made with a higher or lower von Frey filament depending on the animal response. The testing always began with normal paws. If a filament induced a brief paw withdrawal of a paw without bending in three out of five tests, the size of the filament was recorded as eliciting a positive withdrawal threshold.^[80] Allodynia was considered to be present when a withdrawal threshold was evoked by a filament corresponding to 8 grams or less.
(§2) In rats with tactile allodynia (a withdrawal threshold with a filament below 8 g), an intrathecal catheter (PE 10) was installed and linked to an osmotic pump (Alzet) in a 37° C. water bath. Following a bolus injection of SCP-1 (30 nmol/kg, 10 μl), agrin siRNA (100 nM) was intrathecally administered continuously by the pump at a rate of 5 μl/1 hour for 4 hr. The animals were subjected to von Frey filament test every 15 min for 4 hr to determine whether the effects of SCP-1 on allodynia suppression are blocked by agrin siRNA. A control siRNA (nFsiRNA) was applied in the same way. The behavioral data was analyzed for agrin effects. Immediately after behavioral experiments, the animals were sacrificed and subjected to protein extraction of lumbar spinal cord, followed by Western-blot analysis as described above.
A blind test was designed for intrathecal drug evaluations. Five days after CCI, rats were subjected to tactile allodynia tests with von Frey filaments. If a filament corresponding to 8 grams or less evoked a withdrawal response on the rat paw (at least 3 responses out of 5 stimuli), the value was designated as the allodynia threshold. […] Either a drug (100 nmol in 10 μl saline) or vehicle (only 10 μl saline) was pre-warmed and intrathecally injected into the allodynic rats. Then the rats were assayed for changes in allodynic and hyperalgesic behavior, agrin gene expression, and agrin protein changes. In addition, distribution and amount of agrin in the dorsal horn were visualized using immunostaining of L5 as reported above in Example 7.

[2] = system: thermal hyperalgesia in allodynic rats; assay: Thermal hyperalgesia test (paw withdrawal latency) in CCI (Bennett) rats; assay type: in vivo, rat
agrin protein [3] = assay: Western blot of agrin protein in L3-5 spinal cord; assay type: in vivo, rat
Method: Western blot for detecting protein expression of agrin: Agrin protein was analyzed from L3-5 spinal cord with Western blot as described below at times of 1 day, 3 days, and 7 days post-surgery. The changes in these proteins between sham-operated, nerve-injured (no drug), and nerve-injured (pre-emptive drug) groups were analyzed.
Agrin Protein Extraction: The rats were deeply anesthetized with isoflurane and decapitated. Spinal cord L3-5 was quickly removed and immediately placed into tissue lysis buffer (1 ml, Sigma Co., St. Louis, Mo.) that contained protein enzyme inhibitors (1:100, Halt, Pierce). The tissue was homogenized for 2 min and incubated on ice for 45 min. The sample was then centrifuged at 10,000×g for 30 min at 4° C. The supernatant was transferred to a new tube and centrifuged again for further clarifying. The concentration of the protein was determined by an Agilent's Bio-Rad protein chip (Agilent's 2100 bioanalyzer, Santa Clara, Calif.) and by the […] (reagents from Bio-Rad).
(§3) Western blot: Protein (20 μg) from each sample was mixed with 2× electrophoresis buffer and boiled for 5 min. The samples, along with a negative control, were loaded on 4-15% acrylamide tris-glycine SDS gels and electrophoresed in a cell (Bio-Rad) for approximately 1 hr. A Hybond-P polyvinylidene difluoride membrane (Bio-Rad, Hercules, Calif.) was used for transferring the protein in a mini-trans-blot transfer cell (Bio-Rad) for 2 hr. The membrane was then soaked in 2% milk for 1 hour and probed with monoclonal agrin antibody (Agr510 and Agr530, 1:5000, StressGen Biotechnologies Corp., Victoria, Canada) or β-actin antibody (1:5000) at 4° C. overnight with continual shaking. The following day goat anti-mouse secondary antibody conjugated to Alexa Fluor680 (1:5000, Molecular Probe) was added to the membrane and incubated for 1 hr at room temperature. The samples were washed three times with TBS buffer (Tris Buffered Saline, DAKO, Carpinteria, Calif.) between steps. The membrane was then scanned with an Odyssey (LI-COR) scanner and analyzed by Odyssey software (Li-Cor, Lincoln, Nebr.).
as §2, with “Immediately after behavioral experiments, the animals were sacrificed and subjected to protein extraction of lumbar spinal cord, followed by Western-blot analysis as described above.” left out

[4] = system: tactile allodynia in allodynic rats; assay: Tactile allodynia test (von Frey filaments, paw withdrawal threshold) in CCI (Bennett model) rats; assay type: in vivo, rat
rodents = details: rodents, dose of 6 mmol/kg; cited from earlier work
agrin mRNA = assay: Rat lumbar spinal tissue culture, agrin mRNA by RT-PCR; assay type: cell-based; details: for agrin gene expression: 24 h
Method: (§4) Spinal cord tissue culture: The dorsal horn of fresh rat lumbar spinal cord was cut into 1-mm sections with a sharp blade under sterile conditions and maintained in culture in 12-well plates with DMEM and 10% FBS. After 2 days, 100 μM NMDA was added to 6 wells. The other 6 wells were used as controls. The culture was maintained for 24 hr, and the tissue subjected to RNA and protein extraction as well as RT-PCR and Western blotting to examine alterations of agrin gene and protein, as described in this Example.
Following peripheral nerve injury, large amounts of glutamate, aspartate, and substance P are released into the extracellular space and excite post-synaptic neurons. […] Exogenous NMDA and substance P (“SP”) were used to culture rat lumbar spinal tissue. The normal dorsal part of lumbar spinal cord was cut into 0.5 mm slices and cultured in DMEM plus 10% FBS serum. After culturing for 24 h, the slices were treated with 100 μM NMDA with or without 10 nM substance P. Control slices were not treated with NMDA or substance P. Each group (experimental and control) had six samples. At 6 h and 24 h after treatment, the slices were subjected to RNA and protein extraction. The extractions were then assayed for agrin mRNA and agrin protein as described above in Examples 1-3. Briefly, the agrin mRNA was assayed using RT-PCR using C-terminal agrin primers for 36 cycles; and the agrin protein was assayed using Western Blot.

agrin protein [5] = assay: Rat lumbar spinal tissue culture, agrin protein by Western blot; assay type: cell-based
Method: as §4
as §3, with “The following day goat anti-mouse secondary antibody conjugated to Alexa Fluor680 (1:5000, Molecular Probe) was added to the membrane and incubated for 1 hr at room temperature. The samples were washed three times with TBS buffer (Tris Buffered Saline, DAKO, Carpinteria, Calif.) between steps.” left out, “Nebr.). […]” for “Nebr.).”

[6] = Solubility for intrathecal injection; assay type: physicochemical
Method: as §1

[7] = system: transitory inflammatory-induced hyperalgesia; details: pain model with transitory inflammatory-induced hyperalgesia; cited from earlier work

Compound: C[C@@H]([C@@H](O)c1ccc(O)cc1)N1CCC(O)(c2ccccc2)CC1 [(1S,2S)-1-(4-hydroxy-phynel)-2-(4-hydroxy-4-phenyl-piperidino)-1-propanol]
- effect on hyperalgesia/allodynia (NMDA receptors; animal models of neuropathic pain): depressed hyperalgesia/allodynia at a dose devoid of adverse effects

Compound: CC(=O)Nc1ccc(O)cc1 [APAP, acetaminophen, reference compound]
- time after injection at which the effect began to diminish ([1]; intrathecal 100 nmol): 90 min
- duration of effect on withdrawal threshold ([1]; intrathecal 100 nmol in 10 μl): short duration
- effect on paw-withdrawal threshold [1]: a less robust effect on the withdrawal threshold
- maximum withdrawal threshold ([1]; intrathecal, same dose and volume (100 nmol in 10 μl)): about 22 g
- increase in paw-withdrawal latency (thermal hyperalgesia) ([2]; intrathecal 100 nmol in 10 μl, CCI (Bennett) rat model): a similar effect on latency
- effect on paw-withdrawal latency at 120 min post injection ([2]; intrathecal 100 nmol, 120 min): dropped to the initial latency value
- agrin protein (agrin protein [3]; pre-emptive intrathecal injection prior to CCI, 3 and 7 days): did not prevent the drop in agrin protein
- effect on tactile allodynia (paw withdrawal threshold) ([4]; pre-emptive intrathecal 100 nmol in 10 μl saline immediately prior to CCI, 0, 3, 7 days): showed an effect similar to SCP-1
- effect on paw withdrawal threshold at 7 days ([4]; pre-emptive intrathecal 100 nmol prior to CCI, 7 days after injury): sharply reduced
- lethality (rodents): killed all the animals

Compound: SP: substance P, increases NMDA receptor excitability by removing magnesium blocking (RPKPQQFFGLM-NH2; ends and bridges not checked; UniProt P20366 58-68, looked up)
- agrin gene expression (agrin mRNA; 10 nM substance P added to 100 μM NMDA): enhanced the down-regulation by NMDA

Compound: C[C@]12N[C@H](Cc3ccccc31)c1ccccc12 [MK801]
- effect on hyperalgesia and allodynia (NMDA receptors): suppress hyperalgesia and allodynia
- doses at which the effects are seen (NMDA receptors): only be seen at doses that induce ataxia
- effect on agrin protein decrease from NMDA receptor over-stimulation (agrin protein [5]; 20 μM MK801 with either NMDA alone or NMDA plus substance P, 24 hr): blocked agrin decrease

Compound: agrin siRNA: siRNA for C-terminal agrin, position 5994; sense GCCCUCAAAGUCCUGUGAUtt (SEQ ID NO: 11), antisense SEQ ID NO: 12 (sense GCCCUCAAAGUCCUGUGAUTT; antisense AUCACAGGACUUUGAGGGCTT; chemistry not given here)
- agrin protein level when injected with SCP-1 (agrin protein [3]; siRNA plus SCP-1, allodynic rats, 2 h post-injection): did not return to normal levels
- effect on the SCP-1 effect on withdrawal threshold ([4]; siRNA 100 nM intrathecally at 5 μl/hour continuously after bolus injection of SCP-1): antagonized the SCP-1 and inhibited the effect on withdrawal threshold

Compound: CNC1(c2ccccc2Cl)CCCCC1=O (stereo not drawn) [ketamine]
- effect on hyperalgesia and allodynia (NMDA receptors): suppress hyperalgesia and allodynia
- doses at which the effects are seen (NMDA receptors): only be seen at doses that induce ataxia

Compound: O=C(CNS(=O)(=O)c1ccccc1C(=O)O)Nc1ccc(O)cc1 [SCP-M1]
- effect on paw-withdrawal threshold [1]: a faster response and a faster return to normal values for withdrawal thresholds than was seen in SCP-1
- solubility compared with SCP-1 [6]: very similar to that of SCP-1
- solubility in 45% 2-hydroxypropyl-α-cyclodextrin in saline ([6]; 45% cyclodextrin in saline, 10 mM solutions prepared): can dissolve them
- solubility in water ([6]; water): do not dissolve readily in water
- analgesic activity [7]: high analgesic activity

Compound: CN[C@H](CC(=O)O)C(=O)O [NMDA]
- agrin mRNA (agrin mRNA; 100 μM NMDA with or without SP, 6 h): No decrease in agrin mRNA
- agrin gene expression (agrin mRNA; 100 μM NMDA, compared to controls without NMDA): visually less
- agrin protein (agrin protein [5]; 100 μM NMDA, 24 h): a decrease in agrin
